This is an account of results in ChEMBL document CHEMBL5380777, “Efficacy, Mechanism, and Structure-Activity Relationship of 6-Methoxy Benzofuran Derivatives as a Useful Tool for Senile Osteoporosis” (J Med Chem, 2023).

For series [1], the system named is Osteoblast. In words: Upregulation of transcription factor JUND expression in 16 months old C57 mouse osteoblast by scRNA-seq analysis. Format: functional, cell-based.
A short description of series [2]: Toxicity in 2.5 months old SAMP-6 rapid aging mouse model assessed as change in ALP level administered at 30 mg/kg/day, IG continuously for 3 months in presence of ALN. Particulars: in vivo, po, 2190 h. Type of series: organism-based.
For series [3], the system named is Osteoblast. Description: Regulation of osteogenesis in 16 months old C57 mouse osteoblast endoplasmic reticulum assessed as increase in CRYAB gene by scRNA-seq analysis. Format: functional, cell-based.
Series [4] deals with Osteoblast. Description: Upregulation of transcription factor XBP1 expression in 16 months old C57 mouse osteoblast by scRNA-seq analysis. Format: functional, cell-based.
Series [5] is described as follows: Toxicity in 2.5 months old SAMP-6 rapid aging mouse model assessed as change in urea level administered at 30 mg/kg/day, IG continuously for 3 months. Format: organism-based. Particulars: in vivo, po, 2190 h.
A short description of series [6]: Acute toxicity in wildtype 3 days post-fertilization AB zebrafish at more than 10 uM. Set-up: species or system Danio rerio. The settings on record: in vivo, 72 h.
Series [7] concerns Mus musculus. In words: Anti osteoporosis in 16 months old C57 mouse assessed as increase in bone mass in femur from proximal end to the distal end administered at 30 mg/kg/day, IG continuously for 2 to 4 months by micro CT analysis relative to aged control group. The settings on record: time 2-4 months. Type of series: functional, organism-based.
The test system of series [8] is Mus musculus. Description: Anti osteoporosis in 16 months old C57 mouse assessed as monocyte level in femur administered at 30 mg/kg/day, IG continuously for 4 months by scRNA-seq analysis (reference value: 12.2%). Type of series: functional. The settings on record: 2920 h.
Series [9] relates to Mus musculus. In words: Anti osteoporosis in 2.5 months old SAMP-6 rapid aging mouse model assessed as increase in osteoblast formation administered at 30 mg/kg/day, IG continuously for 3 months. Format: functional, organism-based.
Series [10] in a line: Toxicity in 2.5 months old SAMP-6 rapid aging mouse model assessed as change in body weight administered at 30 mg/kg/day, IG in presence of ALN continuously for 3 months. Format: organism-based. The settings on record: in vivo, po, 2190 h.
Series [11] in a line: Toxicity in 16 months old C57 mouse assessed as change in urea level administered at 30 mg/kg/day, IG continuously for 4 months. Type of series: organism-based. Particulars: in vivo, po, 2920 h.

Calls of active or inactive are those of the source. The calls are words filed in the database; no cut-off is given here.

With `COc1ccc2cc(C(=O)NCCN(C)C)oc2c1.CS(=O)(=O)O`, the outcome in series [1], in series [3], in series [4], in series [7] and in series [9] was Active. For the same molecule, the Activity result is listed as “Non-Toxic” in [2]; “Non-Toxic” in series [5]; “Toxic” in series [6]; 4.94% in series [8]; “Non-Toxic” in series [10]; “Non-Toxic” in [11].
